Laboratory results: patent publication US20080275036A1, “Prevention and treatment of cardiac conditions” (APT Pharmaceuticals, Inc., priority 2007, published 2008)
“Also recorded” adds a separate entry of the source. Like-named read-outs stand apart in the source and are kept apart here.

Legend:
[1] = tested on: isolated guinea pig myocytes; test: Action potential properties in isolated guinea pig myocytes; type: cell-based
[2] = tested on: single guinea-pig ventricular myocytes; test: Action potential recording in single guinea-pig ventricular myocytes; type: cell-based; details: for action potential duration (effect in words): superfused 10 to 30 minutes
Description: Myocytes were isolated after perfusion of the heart with a physiological salt solution containing reduced calcium and 0.8 mg/mL of collagenase Type 1 (Worthington Biochemicals).
Action potentials were recorded from single guinea-pig ventricular myocytes using the standard control conditions and criteria as adopted by CCTT Ltd. (see http://www.cctt.ltd.uk/ap1.htm). Briefly, action potentials were recorded using conventional glass microelectrodes filled with 1 M KMeSO4 and 10 mM KCl. Electrode resistances were in the range of 40 to 60 MΩ. An Axoclamp 2B (Axon Instruments Inc) amplifier was used for electrical recording. Action potentials were continuously stimulated by application of a brief (1-2 ms) current stimuli applied via the intracellular microelectrode in ‘bridge’ mode. Following penetration of the cell with the microelectrode, a stabilisation period of at least 5 min was allowed before recordings were started. The frequency of stimulation was 1 Hz. Recorded signals were digitised at a sampling frequency of 5 kHz and stored for subsequent off line analysis. Action potential signals were continuously monitored online using an oscilloscope (Tektronix digital storage oscilloscope) to check for development of effects of dexrazoxane. All recordings are made at 36±1° C.
The stability of several parameters of the action potential profile (resting potential, action potential amplitude and action potential duration) was ensured before recordings were commenced. Resting potential was measured over a 5-10 ms period before the stimulus artefact and values for the resting potential falling between −75 to −85 mV were taken as normal. Action potential amplitude was measured following the stimulus artefact and values falling between 110 to 130 mV were taken as normal.
All data are presented as mean ±SEM. The effect of dexrazoxane on action potential characteristics was assessed using Student's t-test (MicroSoft Excel) and P<0.05 was taken to indicate statistical significance.
Action potential duration was measured from the peak amplitude of the action potential to 90% repolarisation level (APD90), and values for APD90 falling between 150 to 300 ms were taken as normal. Parameters measured in this study were action potential duration at 40, and 90% repolarisation levels (APD40 and APD90) using Clampfit 9.0.
For each cell, APD40 and APD90 values were calculated in the absence (control) and presence of a drug. As an index of ‘Triangulation’ APD90-APD40, (APD90-40 ms) in the absence (APD90-40 control) and presence of dexrazoxane (APD90-40 drug) were calculated. This was normalised to the starting (control) APD90 to express APD90-40 duration as a % of control APD90. Calculations were made for each cell individually; the values for each drug concentration were then averaged.

[3] = cited from earlier work
[4] = tested on: single ventricular myocytes; test: Unloaded cell shortening (UCS) of single ventricular myocytes; details: 10 μM
[5] = cited from earlier work; remark: listed apart in the source
[6] = tested on: Langendorff heart preparations; test: Heart rate variability after total flow occlusion in stable Langendorff heart preparations; details: 10 μM, 30 min
[7] = tested on: isolated, perfused guinea pig heart; test: Perfusion of doxorubicin and dexrazoxane in the isolated, perfused guinea pig heart (Langendorff); details: for % change in MAP duration / % change in QTc / Cardiac rate / Cor flow / LV dp/dt max / LV dpdt (relax) / LV peak systolic pressure / LVEDP / MAP Duration / QTcF: 30 min of perfusion
Description: Perfusion studies of doxorubicin and dexrazoxane in the isolated, perfused guinea pig heart were performed similarly as above. The following parameters were recorded continuously: electrocardiogram (ECG), monophasic action potentials (MAP), perfusion pressure, left ventricular pressure and coronary flow. These effects could be related to some modifications of cardiac electrophysiology (changes in PR, QRS, QT and RR intervals, proarrhythmic effects, Torsade de pointes . . . ), of coronary resistance and/or of cardiac contraction or inotropism (contractility or relaxation troubles).
Stock solutions (10^−2M, 3×10^−2M) in H20 for each drug were prepared each day of the experiment and a dilution (1/1000) done in the perfusion buffer in order to get the appropriate concentrations:
The buffer used in the experiment was KREBS-[…] buffer (Sigma K-3753) to which was added sodium bicarbonate (Sigma S5761) 25 mM and calcium chloride dihydrate (Sigma C8106) 1.8 mM.
The ECG (2 electrodes: on the apex and closed to the right auricular) and the MAP (electrode on the epicardium) were recorded. PR, QRS, QT and RR were measured and QTc (Fridericia; QTc=QT/(RR) ⅓ in ms) was calculated.
The coronary flow (mL/min) is indicated by the perfusion pump. In this model, the perfusion pressure was constant.
Diastolic pressure (mmHg), systolic pressure (mmHg), differential pressure (syst-diast) (mmHg), mean pressure (mmHg), dP/dt min (mmHg/sec) dP/dt max (mmHg/sec) and cardiac frequency (beat per minute: BPM) were measured. A modification of the inotropism can be a problem of cardiac contractility (if modified systolic pressure and dP/dt max) or relaxation (if modified diastolic pressure and dP/dt min). From the left ventricular pressure, the following were calculated: heart rate (frequency of cardiac contractions), dP/dt min and dP/dt max. An acquisition unit MP150WSW with Acknowledge software (Biopac, USA) was used to continuously record all the signals (perfusion pressure, coronary flow, left ventricular pressure, ECG and MAP) through a PC computer. In each group (n=4 hearts), increasing concentrations of compound were infused according to the following design:
For each group, the data are expressed as mean ±S.E.M, % of variation compared to D0 and delta variation from D0. PR, QRS, QT and RR are measured on the same period but on a signal which results from 5 cycles.
On all the curves, the mean value is measured on 30 seconds in the last minute of perfusion for the following parameters: […]

[8] = tested on: isolated guinea pig myocytes; test: Calcium transients in isolated guinea pig myocytes; type: cell-based
Description: Calcium transients were measured during activation in isolated guinea pig myocytes. […] This increase in calcium transient without an action potential increase indicates an effect on calcium cycling proteins.

C[C@@H](CN1CC(=O)NC(=O)C1)N1CC(=O)NC(=O)C1 [Dexrazoxane, (S)-4,4′-(1-methyl-1,2-ethanediyl)bis-2,6-piperazinedione]
APD50 ([1]; 10 μM): 512 ± 47 ms | APD90 ([1]; 10 μM): 573 ± 43 ms | Action potentials, Peak amplitude ([1]; 10 μM): 119 ± 2 mV | Action potentials, Resting potential ([1]; 10 μM): −69 ± 0 mV | APD50 ([1]; 30 μM): 493 ± 36 ms | APD90 ([1]; 30 μM): 564 ± 33 ms | Action potentials, Peak amplitude ([1]; 30 μM): 121 ± 2 mV | Action potentials, Resting potential ([1]; 30 μM): −68 ± 2 mV | APD50 ([1]; 100 μM): 548 ± 45 ms | APD90 ([1]; 100 μM): 619 ± 39 ms | Action potentials, Peak amplitude ([1]; 100 μM): 124 ± 1 mV | Action potentials, Resting potential ([1]; 100 μM): −66 ± 1 mV | action potential duration (effect in words) ([1]; over the tested concentrations): without inducing a change | decrease in APD40 ([2]; 10 μM in superfusion solution, n=3, P<0.005): 18±4% | APD90-40 duration (index of triangulation) ([2]; 10 μM superfusion): did not significantly alter | action potential duration (APD90) ([2]; 10 μM, 27 minutes, control 212±9 ms): 168 ± 12 ms | shortening of APD90 ([2]; 10 μM, perfusion 27 minutes, n=4, P<0.005): 18±3% | action potential duration (effect in words) ([2]; 10 μM): shortened action potential duration | action potential duration (effect in words) ([2]; 10 μM, listed as dexrazoxane): shortened action potential duration; also recorded: caused shortening of action potential duration | APD40 ([2]; 10 μM, control 175±8 ms): 136 ± 15 ms | stability of lyophilized drug without significant decomposition [3]: ~12 months | amplitude of UCS / contraction (effect in words) ([4]; 27 minutes): did not significantly alter | peak amplitude of UCS, absolute cell shortening ([4]; 27 minutes, n=3, control 9.4±3.4 μm, P=ns): 10.7±3.2 μm | UCS as percentage of resting cell length ([4]; n=3, control 8.5±2.7% RCL, P=ns): 8.0±2.0 % RCL | solubility in 0.1 N HCl ([5]; 0.1 N HCl at 25° C., salt of hydrochloric acid): 35 mg/mL | solubility in 0.1 N HCl ([5]; 0.1 N HCl): sparingly soluble | solubility in water ([5]; 25° C.): about 10 mg/ml | solubility in non-polar, organic solvents [5]: practically insoluble | solubility in polar solvents ([5]; ethanol and methanol): slightly soluble | coefficient of variation (heart rate variability) at reperfusion ([6]; control 2.9±0.2, n=3, P=ns): 3.3±1.1 | increase of coefficient of variation (heart rate variability) during reperfusion ([6]; reperfusion after 15 min total flow ischemia, n=3): 77% | % change in MAP duration ([7]; DOX 3 * 10^−5 mM): 0.0% | % change in QTc ([7]; DOX 3 * 10^−5 mM): −1.7 % change | Cardiac rate ([7]; DOX 3 * 10^−5 mM): 200 Beats/min | Cor flow ([7]; DOX 3 * 10^−5 mM): 14.6 mL/min | LV dp/dt max ([7]; DOX 3 * 10^−5 mM): 1041 mmHg sec^−1 | LV dpdt (relax) ([7]; DOX 3 * 10^−5 mM): −1022 mmHg sec^−1 | LV peak systolic pressure ([7]; DOX 3 * 10^−5 mM): 82 mmHg | LVEDP ([7]; DOX 3 * 10^−5 mM): 5 mmHg | MAP Duration ([7]; DOX 3 * 10^−5 mM): 143 ms | QTcF ([7]; DOX 3 * 10^−5 mM): 237 ms | % change in MAP duration ([7]; DOX 10^−5 mM): 0% | % change in QTc ([7]; DOX 10^−5 mM): −2.1 % change | Cardiac rate ([7]; DOX 10^−5 mM): 203 Beats/min | Cor flow ([7]; DOX 10^−5 mM): 14 mL/min | LV dp/dt max ([7]; DOX 10^−5 mM): 1238 mmHg sec^−1 | LV dpdt (relax) ([7]; DOX 10^−5 mM): −1139 mmHg sec^−1 | LV peak systolic pressure ([7]; DOX 10^−5 mM): 94 mmHg | LVEDP ([7]; DOX 10^−5 mM): 5 mmHg | MAP Duration ([7]; DOX 10^−5 mM): 139 ms | QTcF ([7]; DOX 10^−5 mM): 236 ms | LVEDP (effect in words) ([7]; dexrazoxane added to the doxorubicin perfusion): did not contribute | QTcF increase by doxorubicin (effect in words) ([7]; dexrazoxane added, both doxorubicin doses): reversed | Ca^2+ transients, Peak amplitude (ΔF/F0) ([8]; 10 μM): 5.2 ± 0.8 ΔF/F0 | Ca^2+ transients, Peak amplitude (ΔF/F0) ([8]; 30 μM): 5.8 ± 1.0 ΔF/F0 | Ca^2+ transients, Peak amplitude (ΔF/F0) ([8]; 100 μM): 5.1 ± 0.6 ΔF/F0 | calcium transients (effect in words) ([8]; over the tested concentrations): dose proportional increase
